Measurements as given in US10022453B2 (BAYER PHARMA AKTIENGESELLSCHAFT, priority 2013, dated 2018).
pIC50: −log10 of the molar value.

Legend:
[1] = system: NCI-H292; experiment: Cytotoxic effects, MTT assay; type: cell-based; conditions: Homo sapiens, 72 h incubation
Method: The cells are cultivated by a standard method, as indicated in the […] (ATCC) for the respective cell lines.
At the end of the selected incubation time, the MTT reagent is incubated with the cells for 4 h, followed by lysis of the cells overnight by addition of the detergent. […] The proliferation of cells which were not treated with test substance but were otherwise identically treated was defined as the 100% figure.

[2] = biological target: T1, human kinesin spindle protein KSP/Eg5 (Homo sapiens, UniProt P52732); experiment: Inhibition of the kinesin spindle protein KSP/Eg5 (ATPase, malachite green); type: biochemical; conditions: 10 nM KSP motor domain, 500 μM ATP, 2 h RT
T1 construct: The motor domain of the human kinesin spindle protein KSP/Eg5; purchased tebu-bio/Cytoskeleton Inc 027EG01-XL
T1 sequence (P52732 18-359 limits assumed): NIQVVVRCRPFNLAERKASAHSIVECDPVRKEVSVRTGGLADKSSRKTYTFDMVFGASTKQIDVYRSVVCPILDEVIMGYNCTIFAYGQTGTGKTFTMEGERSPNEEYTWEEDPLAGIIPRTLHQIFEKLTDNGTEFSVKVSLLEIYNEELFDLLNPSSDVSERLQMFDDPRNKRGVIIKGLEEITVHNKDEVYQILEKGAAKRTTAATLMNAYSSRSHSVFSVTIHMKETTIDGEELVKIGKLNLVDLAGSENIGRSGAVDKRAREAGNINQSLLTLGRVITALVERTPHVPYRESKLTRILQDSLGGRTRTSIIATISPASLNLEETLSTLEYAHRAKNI
In short: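 KSP/Eg5 motor domain (10 nM) preincubated 5 min at RT with 50 μg/ml taxol-stabilized bovine or porcine microtubules in 15 mM PIPES pH 6.8, 5 mM MgCl2, 10 mM DTT. IC50 = mean of three experiments.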

[3] = Cell permeability, flux assay using Caco-2 cells; conditions: human, Caco-2

Compound CC(C)(C)[C@H](c1cc(-c2cc(F)ccc2F)cn1Cc1ccccc1)N(CCCN)C(=O)CO [Example 98, N-(3-aminopropyl)-N-{(1R)-1-[1-benzyl-4-(2,5-difluorophenyl)-1H-pyrrol-2-yl]-2,2-dimethylpropyl}-2-hydroxyacetamide] has an IC50 [1] of 1.65 nM and a pIC50 [2] of 8.74.
Compound CC(C)(C)[C@@H](c1cc(-c2cc(F)ccc2F)cn1Cc1ccccc1)N(CCCN)C(=O)CO [Example 102, N-(3-Aminopropyl)-N-{(1S)-1-[1-benzyl-4-(2,5-difluorophenyl)-1H-pyrrol-2-yl]-2,2-dimethylpropyl}-2-hydroxyacetamide] has an IC50 [1] of 32.9 nM and a pIC50 [2] of 8.33.
CC(=O)N(CCCN)[C@@H](c1nn(-c2cc(F)ccc2F)cc1Cc1ccccc1)C(C)(C)C [Example 181, N-(3-Aminopropyl)-N-{(1R)-1-[4-benzyl-1-(2,5-difluorophenyl)-1H-pyrazol-3-yl]-2,2-dimethylpropyl}acetamide] gave an IC50 [1] of 7.72 nM and a pIC50 [2] of 8.10.
For COCC(=O)N(CCCN)[C@@H](c1nn(-c2cc(F)ccc2F)cc1Cc1ccccc1)C(C)(C)C [Example 182, N-(3-aminopropyl)-N-{(1R)-1-[4-benzyl-1-(2,5-difluorophenyl)-1H-pyrazol-3-yl]-2,2-dimethylpropyl}-2-methoxyacetamide], the IC50 [1] was 1.2 nM and the pIC50 [2] was 7.98.
With CC(C)(C)[C@H](c1nn(-c2cc(F)ccc2F)cc1Cc1ccccc1)N(CCCN)C(=O)c1ccc(F)cc1F [Example 183, N-(3-aminopropyl)-N-{(1R)-1-[4-benzyl-1-(2,5-difluorophenyl)-1H-pyrazol-3-yl]-2,2-dimethylpropyl}-2,4-difluorobenzamide] the IC50 [1] was 32.9 nM and the pIC50 [2] was 8.21.
Cc1ccc(C(=O)N(CCCN)[C@@H](c2nn(-c3cc(F)ccc3F)cc2Cc2ccccc2)C(C)(C)C)cc1 [Example 184, N-(3-aminopropyl)-N-{(1R)-1-[4-benzyl-1-(2,5-difluorophenyl)-1H-pyrazol-3-yl]-2,2-dimethylpropyl}-4 methylbenzamide] showed an IC50 [1] of 27.8 nM and a pIC50 [2] of 7.84.
In the case of CCOCC(=O)N(CCCN)[C@@H](c1nn(-c2cc(F)ccc2F)cc1Cc1ccccc1)C(C)(C)C [Example 185, N-(3-aminopropyl)-N-{(1R)-1-[4-benzyl-1-(2,5-difluorophenyl)-1H-pyrazol-3-yl]-2,2-dimethylpropyl}-2-ethoxyacetamide], the IC50 [1] was 12 nM and the pIC50 [2] was 7.74.
For CC(C)(C)[C@H](c1cc(-c2cc(F)ccc2F)cn1Cc1ccccc1)N(CCCN)C(=O)CC(F)(F)F [Example 186, N-(3-Aminopropyl)-N-{(1R)-1-[1-benzyl-4-(2,5-difluorophenyl)-1H-pyrrol-2-yl]-2,2-dimethylpropyl}-3,3,3-trifluoropropanamide], the IC50 [1] was 9.29 nM and the pIC50 [2] was 7.60.
For CC(C)(C)[C@H](c1cc(-c2cc(F)ccc2F)cn1Cc1ccccc1)N(CCCN)C(=O)c1ccc(F)cc1 [Example 187, N-(3-aminopropyl)-N-{(1R)-1-[1-benzyl-4-(2,5-difluorophenyl)-1H-pyrrol-2-yl]-2,2-dimethylpropyl}-4-fluorobenzamide], the IC50 [1] was 1.98 nM and the pIC50 [2] was 7.85.
In the case of CC(=O)N(CCCN)[C@@H](c1cc(-c2cc(F)ccc2F)cn1Cc1ccccc1)C(C)(C)C [Example 188, N-(3-aminopropyl)-N-{(1R)1-[1-benzyl-4-(2,5-difluorophenyl)-1H-pyrrol-2-yl]-2,2-dimethylpropyl}acetamide], the IC50 [1] was 0.928 nM and the pIC50 [2] was 8.00.
Compound CC(C)(C)[C@H](c1cc(-c2cc(F)ccc2F)cn1Cc1ccccc1)N(CCCN)C(=O)c1ccc(C(F)(F)F)cc1 [Example 189, N-(3-aminopropyl)-N-{(1R)-1-[1-benzyl-4-(2,5-difluorophenyl)-1H-pyrrol-2-yl]-2,2-dimethylpropyl}-4-(trifluoromethyl)benzamide] has an IC50 [1] of 8.76 nM and a pIC50 [2] of 7.95.
In the case of CC(C)(C)[C@H](c1cc(-c2cc(F)ccc2F)cn1Cc1ccccc1)N(CCCN)C(=O)c1ccc(F)cc1F [Example 190], the IC50 [1] was 5.42 nM and the pIC50 [2] was 8.02.
With CC(C)(C)[C@H](c1cc(-c2cc(F)ccc2F)cn1Cc1ccccc1)N(CC[C@H](N)C(=O)O)C(=O)CO.Cl [Example 197, (2S)-2-Amino-4-[{(1R)-1-[1-benzyl-4-(2,5-difluorophenyl)-1H-pyrrol-2-yl]-2,2-dimethylpropyl}(glycoloyl)amino]butanoic acid hydrochloride (1:1)] the Papp B→A at 2 h [3] was 9.3 ×10⁻⁶ cm/s and the IC50 [1] was 7.35 nM.
Compound CC(C)(C)[C@H](c1cc(-c2cc(F)ccc2F)cn1Cc1ccccc1)N(CC[C@H](N)C(=O)NCCC(=O)O)C(=O)CO [Example 200, N-{(2S)-2-Amino-4-[{(1R)-1-[1-benzyl-4-(2,5-difluorophenyl)-1H-pyrrol-2-yl]-2,2-dimethylpropyl}(glycoloyl)amino]butanoyl}-beta-alanine/trifluoroacetic acid (1:1)] has an IC50 [1] of 140 nM and a pIC50 [2] of 9.97.
C[C@H](NC(=O)[C@@H](N)CCN(C(=O)CO)[C@@H](c1cc(-c2cc(F)ccc2F)cn1Cc1ccccc1)C(C)(C)C)C(=O)O [Example 202, N-{(2S)-2-Amino-4-{[(1R)-1-[1-benzyl-4-(2,5-difluorophenyl)-1H-pyrrol-2-yl]-2,2-dimethylpropyl}(glycoloyl)amino]butanoyl}-L-alanine/trifluoroacetic acid (1:1)] gave an IC50 [1] of 422 nM and a pIC50 [2] of 9.59.
In the case of Cc1ccc(C(=O)N(CCCN)[C@@H](c2cc(-c3cc(F)ccc3F)cn2Cc2ccccc2)C(C)(C)C)cc1 [Example 219, Trifluoroacetic acid/N-(3-aminopropyl)-N-{(1R)-1-[1-benzyl-4-(2,5-difluorophenyl)-1H-pyrrol-2-yl]-2,2-dimethylpropyl}-4-methylbenzamide (1:1)], the IC50 [1] was 3.48 nM and the pIC50 [2] was 8.95.
For CSc1ccc(C(=O)N(CCCN)[C@@H](c2cc(-c3cc(F)ccc3F)cn2Cc2ccccc2)C(C)(C)C)cc1 [Example 220, Trifluoroacetic acid/N-(3-aminopropyl)-N-{(1R)-1-[1-benzyl-4-(2,5-difluorophenyl)-1H-pyrrol-2-yl]-2,2-dimethylpropyl}-4-(methylsulphanyl)benzamide (1:1)], the IC50 [1] was 0.197 nM and the pIC50 [2] was 8.84.
C[C@H](O)C(=O)N(CCCN)[C@@H](c1cc(-c2cc(F)ccc2F)cn1Cc1ccccc1)C(C)(C)C [Example 221, Trifluoroacetic acid/(2S)—N-(3-aminopropyl)-N-{(1R)-1-[1-benzyl-4-(2,5-difluorophenyl)-1H-pyrrol-2-yl]-2,2-dimethylpropyl}-2-hydroxypropanamide (1:1)] gave an IC50 [1] of 0.1 nM and a pIC50 [2] of 9.95.
CSCC(=O)N(CCCN)[C@@H](c1cc(-c2cc(F)ccc2F)cn1Cc1ccccc1)C(C)(C)C [Example 222, Trifluoroacetic acid/N-(3-aminopropyl)-N-{(1R)-1-[1-benzyl-4-(2,5-difluorophenyl)-1H-pyrrol-2-yl]-2,2-dimethylpropyl}-2-(methylsulphanyl)acetamide (1:1)] gave an IC50 [1] of 3.3 nM and a pIC50 [2] of 8.80.
C[C@H](O)C(=O)N(CCCN)[C@@H](c1nn(-c2cc(F)ccc2F)cc1Cc1ccccc1)C(C)(C)C [Example 223, Trifluoroacetic acid/(2S)—N-(3-aminopropyl)-N-{(1R)-1-[4-benzyl-1-(2,5-difluorophenyl)-1H-pyrazol-3-yl]-2,2-dimethylpropyl}-2-hydroxypropanamide (1:1)] gave an IC50 [1] of 0.0077 nM and a pIC50 [2] of 9.54.
For COC(=O)CCC(=O)N(CCCN)[C@@H](c1cc(-c2cc(F)ccc2F)cn1Cc1ccccc1)C(C)(C)C [Example 224, Trifluoroacetic acid/methyl 4-[(3-aminopropyl){(1R)-1-[1-benzyl-4-(2,5-difluorophenyl)-1H-pyrrol-2-yl]-2,2-dimethylpropyl}amino]-4-oxobutanoate (1:1)], the IC50 [1] was 0.00337 nM and the pIC50 [2] was 9.71.
Compound CC(C)(C)[C@H](c1cc(-c2cc(F)ccc2F)cn1Cc1ccccc1)N(CCCN)C(=O)CCC(=O)O [Example 225, 4-[(3-Aminopropyl) {(1R)-1-[1-benzyl-4-(2,5-difluorophenyl)-1H-pyrrol-2-yl]-2,2-dimethylpropyl}amino]-4-oxobutanoic acid/trifluoroacetic acid (1:1)] has an IC50 [1] of 1.51 nM and a pIC50 [2] of 9.37.
For CC(C)(C)[C@H](c1nn(-c2cc(F)ccc2F)cc1Cc1ccccc1)N(CCCN)C(=O)c1ccc(N)cc1 [Example 227, Trifluoroacetic acid/4-amino-N-(3-aminopropyl)-N-{(1R)-1-[4-benzyl-1-(2,5-difluorophenyl)-1H-pyrazol-3-yl]-2,2-dimethylpropyl}benzamide (2:1)], the IC50 [1] was 1.82 nM and the pIC50 [2] was 8.75.
Compound CC(=O)N[C@@H](CSCC(=O)N(CCCN)[C@@H](c1cc(-c2cc(F)ccc2F)cn1Cc1ccccc1)C(C)(C)C)C(=O)O [Example 228, N-Acetyl-S-{2-[(3-aminopropyl){(1R)-1-[1-benzyl-4-(2,5-difluorophenyl)-1H-pyrrol-2-yl]-2,2-dimethylpropyl}amino]-2-oxoethyl}-L-cysteine/trifluoroacetic acid (1:1)] has an IC50 [1] of 5.36 nM and a pIC50 [2] of 8.51.
